Measured values published in patent publication US10023602B2, “Hamamelitannin analogues and uses thereof” (Universiteit Gent, priority 2014, dated 2018).

Legend:
[1] = tested on: methicillin resistant S. aureus Mu50 strain (S. aureus ATCC700699) biofilm; test: Biofilm susceptibility to vancomycin, pre-treatment regimen (biofilm formed in presence of compound, then vancomycin); type: cell-based; conditions: for Pretreat (100 μM): percentage Colony Forming Units (CFU's) per biofilm: compound 100 μM during biofilm formation, then VAN 20 μg/ml, compared to the untreated (negative) control; for EC50: concentration needed to get 50% killing compared to antibiotic alone (VAN 20 μg/ml) and complete killing, read-out: Pretreat. (EC50)
Summary of the method: (§1)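 Mu50 biofilms from 10^8 CFU/ml inoculum (4 h adhesion, then 20 h, 37 °C). Pre-treatment: compound (0.1-250 μM) present during biofilm formation, then vancomycin 20 μg/ml alone 24 h; combination: mature biofilm given vancomycin 20 μg/ml plus compound 24 h. Survivors counted by plating versus vancomycin alone.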

[2] = tested on: methicillin resistant S. aureus Mu50 strain (S. aureus ATCC700699) biofilm; test: Biofilm susceptibility to vancomycin, combination treatment regimen (mature biofilm treated with compound plus vancomycin); type: cell-based; conditions: for Combin. (100 μM): percentage Colony Forming Units (CFU's) per biofilm: compound 100 μM together with VAN 20 μg/ml on mature biofilm, compared to the untreated (negative) control; for EC50: concentration needed to get 50% killing compared to antibiotic alone (VAN 20 μg/ml) and complete killing, read-out: Combin. (EC50)
Summary of the method: as §1

Compound | Pretreat (100 μM): percentage Colony Forming Units (CFU's) per biofilm [1] [percentage] | Combin. (100 μM): percentage Colony Forming Units (CFU's) per biofilm [2] [percentage] | EC50 [1] [µM] | EC50 [2] [µM]
O=C(NC[C@]1(O)CO[C@H](CNC(=O)c2cccnn2)[C@H]1O)c1ccccc1 [compound 206, N-(((2R,3R,4S)-4-(benzamidomethyl)-3,4-dihydroxytetrahydrofuran-2-yl)methyl)pyridazine-3-carboxamide] | 6.460 | 15.17 |  | 
O=C(NC[C@H]1OC[C@@](O)(CNC(=O)c2ccccc2)[C@@H]1O)c1ccnnc1 [compound 207, N-(((2R,3R,4S)-4-(benzamidomethyl)-3,4-dihydroxytetrahydrofuran-2-yl)methyl)pyridazine-4-carboxamide] | 6.950 | 13.70 | 7.28 | 8.54
O=C(NC[C@]1(O)CO[C@H](CNC(=O)c2cnccn2)[C@H]1O)c1ccccc1 [compound 208, N-(((2R,3R,4S)-4-(benzamidomethyl)-3,4-dihydroxytetrahydrofuran-2-yl)methyl)pyrazine-2-carboxamide] | 10.52 | 18.77 |  | 
Cn1nccc1C(=O)NC[C@H]1OC[C@@](O)(CNC(=O)c2ccccc2)[C@@H]1O [compound 209, N-(((2R,3R,4S)-4-(benzamidomethyl)-3,4-dihydroxytetrahydrofuran-2-yl)methyl)-1-methyl-1H-pyrazole-5-carboxamide] | 22.47 | 21.74 | 29.3 | 23.5
Cn1cncc1C(=O)NC[C@H]1OC[C@@](O)(CNC(=O)c2ccccc2)[C@@H]1O [compound 210, N-(((2R,3R,4S)-4-(benzamidomethyl)-3,4-dihydroxytetrahydrofuran-2-yl)methyl)-1-methyl-1H-imidazole-5-carboxamide] | 22.10 | 26.95 | 52.3 | 58.2
CS(=O)(=O)NC[C@H]1OC[C@@](O)(CNC(=O)c2ccccc2)[C@@H]1O [compound 211, N-(((3S,4R,5R)-3,4-dihydroxy-5-(methylsulfonamidomethyl)tetrahydrofuran-3-yl)methyl)benzamide] | 31.02 | 38.03 |  | 
CCS(=O)(=O)NC[C@H]1OC[C@@](O)(CNC(=O)c2ccccc2)[C@@H]1O [compound 212, N-(((3S,4R,5R)-5-(ethylsulfonamidomethyl)-3,4-dihydroxytetrahydrofuran-3-yl)methyl)benzamide] | 50.68 | 52.64 |  | 
CC(C)S(=O)(=O)NC[C@H]1OC[C@@](O)(CNC(=O)c2ccccc2)[C@@H]1O [compound 213, N-(((3S,4R,5R)-3,4-dihydroxy-5-(((1-methylethyl)sulfonamido)methyl)tetrahydrofuran-3-yl)methyl)benzamide] | 28.32 | 32.67 |  | 
O=C(NC[C@]1(O)CO[C@H](CNS(=O)(=O)C(F)(F)F)[C@H]1O)c1ccccc1 [compound 214, N-(((3S,4R,5R)-3,4-dihydroxy-5-(((trifluoromethyl)sulfonamido)methyl)tetrahydrofuran-3-yl)methyl)benzamide] | 29.28 | 42.85 |  | 
O=C(NC[C@]1(O)CO[C@H](CNS(=O)(=O)c2ccccc2)[C@H]1O)c1ccccc1 [compound 215, N-(((3S,4R,5R)-3,4-dihydroxy-5-(phenylsulfonamidomethyl)tetrahydrofuran-3-yl)methyl)benzamide] | 22.23 | 31.29 |  | 
Cc1ccc(S(=O)(=O)NC[C@H]2OC[C@@](O)(CNC(=O)c3ccccc3)[C@@H]2O)cc1 [compound 216, N-(((3S,4R,5R)-3,4-dihydroxy-5-(((4-methylphenyl)sulfonamido)methyl)tetrahydrofuran-3-yl)methyl)benzamide] | 16.96 | 25.95 |  | 
O=C(NC[C@]1(O)CO[C@H](CNS(=O)(=O)c2ccc(Cl)cc2)[C@H]1O)c1ccccc1 [compound 217, N-(((3S,4R,5R)-5-(((4-chlorophenyl)sulfonamido)methyl)-3,4-dihydroxytetrahydrofuran-3-yl)methyl)benzamide] | 14.04 | 14.85 | 23.5 | 27.8
O=C(NC[C@]1(O)CO[C@H](CNS(=O)(=O)c2ccccc2Cl)[C@H]1O)c1ccccc1 [compound 218, N-(((3S,4R,5R)-5-(((2-chlorophenyl)sulfonamido)methyl)-3,4-dihydroxytetrahydrofuran-3-yl)methyl)benzamide] | 35.03 | 26.88 |  | 
O=C(NC[C@]1(O)CO[C@H](CNS(=O)(=O)c2ccc(-c3ccccc3)cc2)[C@H]1O)c1ccccc1 [compound 219, N-(((3S,4R,5R)-5-(([1,1′-biphenyl]-4-sulfonamido)methyl)-3,4-dihydroxytetrahydrofuran-3-yl)methyl)benzamide] | 16.13 | 17.02 |  | 
O=C(NC[C@]1(O)CO[C@H](CNS(=O)(=O)c2ccccc2-c2ccccc2)[C@H]1O)c1ccccc1 [compound 220, N-(((3S,4R,5R)-5-(([1,1′-biphenyl]-2-sulfonamido)methyl)-3,4-dihydroxytetrahydrofuran-3-yl)methyl)benzamide] | 25.63 | 29.85 |  | 
O=C(NC[C@]1(O)CO[C@H](Cn2cc(-c3ccccc3)nn2)[C@H]1O)c1ccccc1 [compound 221, N-(((3S,4R,5R)-3,4-dihydroxy-5-((4-phenyl-1H-1,2,3-triazol-1-yl)methyl)tetrahydrofuran-3-yl)methyl)benzamide] | 54.01 | 33.81 |  | 
O=C(NC[C@]1(O)CO[C@H](Cn2nncc2-c2ccccc2)[C@H]1O)c1ccccc1 [compound 222, N-(((3S,4R,5R)-3,4-dihydroxy-5-((5-phenyl-1H-1,2,3-triazol-1-yl)methyl)tetrahydrofuran-3-yl)methyl)benzamide] | 47.10 | 73.90 |  | 
O=C(NC[C@H]1OC[C@@](O)(CNC(=O)c2ccccc2)[C@@H]1O)Nc1ccccc1 [compound 223, N-(((3S,4R,5R)-3,4-dihydroxy-5-((3-phenylureido)methyl)tetrahydrofuran-3-yl)methyl)benzamide] | 23.99 | 18.72 |  | 
